The values below come from publication PMC6479814, “Structure-Based Design of Novel Benzimidazole Derivatives as Pin1 Inhibitors” (Molecules, 2019).

Data set [1] has as its target T1, Pin1 (Homo sapiens, UniProt Q13526).
T1 construct: purchased Sino Biological Inc., Beijing, China
The conditions noted are these: known Pin1 inhibitors, Figure 1; cited from earlier work.

On the set-up of data set [2]: method as in PMID 29170140. The following applies: in humans; cited from earlier work.
In data set [3] the test system is tumor cells. More on the design: method as in PMID 19729306, PMID 20207139, PMID 25091930. The conditions noted are these: result in words; cited from earlier work.
Data set [4] concerns the target T1, Pin1. Kind of data set: Pin1 inhibition, protease-coupled assay. The class given is biochemical. The conditions noted are these: 10 °C; for inhibition at 10 µM: Pin1, compound at 10 μM; for IC50: Pin1, protease-coupled assay. How it is done: To investigate the Pin1 inhibitory potency of all synthesized compounds, the inhibition ratio at 10 μM or IC50 of all synthesized compounds was determined using protease-coupled assay.
Pin1 inhibitory activities were measured at 10 °C by protease-coupled assay as reported previous. Suc-Ala-Glu-cis-Pro-Phe-4-nitroaniline (Bachem, Bubendorf, Switzerland) in 0.47 mol/L, LiCl/trifluoroethanol was used as the substrate. The assay buffer (860 μL of 35 mM HERES at pH 7.8), Pin1 (20 μL, Bought from Sino Biological Inc., Beijing, China) and target compounds (10 μL of varying comcentrations in DMSO) were pre-equilibtated in the cuvette at 10 °C for 30 min. Then, 150 uL of ice-cooled chymotrypsin (60 mg/mL in 0.001 M/HCl) was added and mixed immediately. Additional substrate (40 μL) was added to start the assay and the reaction was monitored by absorbance at 390 nm for 90 s. For each compound, four concentrations (10 μM, 3.3 μM, 1.1 μM, 0.37 μM) were chosen, and the assay was performed in duplicate. The data was analyzed by Graphpad Prism 6.0.

Data set [5] relates to PC-3 cells. Kind of data set: In vitro anti-proliferative MTT assay. The class given is cell-based, human. The following applies: Homo sapiens; PC-3 cells, MTT, 96 h. The method, then:
As for Pin1 was overexpressed in human prostate cancer cells, the antiproliferative activity of these benzimidazole derivatives against PC-3 cells were further evaluated by MTT assay. Meanwhile, the polar surface area (PSA) of these compounds was calculated under the optimal conformation since PSA is the key indicator of membrane permeability.
The tested cells were plated in 96-well microtiter plates with a density of 2,000 cells/well and incubated in a humidified atmosphere with 5% CO2 at 37 °C for 24 h. The cells were then exposed to tested compounds of different concentrations in triplicate. After incubated for 96 h, 50 μL of 3-(4,5-dimethylthiazol-2-yl)-2,5-diphenyltetrazolium bromide (MTT) solution (2 mg/mL) was added to each well and incubated for an additional 4 h. Then the suspernatant was discarded and the fromazan was dissolved in 200 μL of dimethyl sulfoxide (DMSO). The plate was oscillated subtly at room temperature for 10 min before the absorbance was measured at 570 nm by a microplate reader. Cell inhibitory ratio was calculated with the following formula:Inhibitory Rate (%) = [(Acontrol − Atreated)/Acontrol] × 100%(1)
The GI50 was determined as the concentration that caused half inhibition of cell proliferation. All experiments were performed three times independently, and the results were reported presented as the mean.
(In general: Tetrazolium dyes change colour on reduction, which living cells bring about.)

The IC50 is the midpoint of a concentration-inhibition curve. A word on the half-life: it is the time in which the quantity being followed falls by half. For orientation: inhibition means the share of the control response that was lost under treatment. High values mean strong suppression, low ones little suppression. One may read the melting point as the temperature, or range, at which the solid turns liquid. By GI50 is commonly meant the concentration at which growth is held to half of that of the control. Low values mean greater sensitivity of the cells, high ones lower sensitivity of the cells.

Read-outs that look alike come from different tables or passages of the source.

T1 sequence (Q13526 whole entry): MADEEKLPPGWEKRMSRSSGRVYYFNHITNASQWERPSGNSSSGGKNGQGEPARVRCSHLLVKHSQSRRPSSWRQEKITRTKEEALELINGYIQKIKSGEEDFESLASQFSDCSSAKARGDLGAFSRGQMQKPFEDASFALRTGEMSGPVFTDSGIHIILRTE

With `Nc1nc(OCc2ccc(CNC(=O)C(F)(F)F)cc2)c2nc[nH]c2n1` [API-1], the IC50 in data set [1] is 0.07 µM.

`CC1=C(/C=C/C(C)=C/C=C/C(C)=C/C(=O)O)C(C)(C)CCC1` [ATRA, all-trans retinoic acid]: in data set [2], the half-life is 45 min.

Consider `O=Cc1nc2ccccc2[nH]1` [Compound 2], for which, in data set [3], the “antiproliferative activities against tumor cells” value is given as “did not exhibit antiproliferative activities”.

Regarding `COc1cccc(NC(=O)CCn2c(-c3nc(C(=O)O)cs3)nc3ccccc32)c1` [Compound 13d, 2-(1-(3-((3-Methoxyphenyl)amino)-3-oxopropyl)-1H-benzo[d]imidazol-2-yl)thiazole-4-carboxylic acid], the melting point was 223 to 225 °C. Also, the inhibition at 10 µM in data set [4] came to 75%. In addition, in data set [5], the GI50 was > 50 µM.

Turning to `COc1cc(NC(=O)CCn2c(-c3nc(C(=O)O)cs3)nc3ccccc32)cc(OC)c1` [Compound 13e, 2-(1-(3-((3,5-Dimethoxyphenyl)amino)-3-oxopropyl)-1H-benzo[d]imidazol-2-yl)thiazole-4-carboxylic acid], the melting point lay within 208 to 210 °C. In data set [4], this compound registered an inhibition at 10 µM of 79%. For the same compound, in data set [5], the GI50 was > 50 µM.

`O=C(CCn1c(-c2nc(C(=O)O)cs2)nc2ccccc21)Nc1cccc([N+](=O)[O-])c1` [Compound 13f, 2-(1-(3-((3-Nitrophenyl)amino)-3-oxopropyl)-1H-benzo[d]imidazol-2-yl)thiazole-4-carboxylic acid] displayed a melting point of 234 to 236 °C. In data set [4], the inhibition at 10 µM worked out at 40%. Besides, the GI50 in data set [5] is > 50 µM.

The compound `O=C(CCn1c(-c2nc(C(=O)O)cs2)nc2ccccc21)Nc1cccc(C(F)(F)F)c1` [Compound 13g, 2-(1-(3-Oxo-3-((3-(trifluoromethyl)phenyl)amino)propyl)-1H-benzo[d]imidazol-2-yl)thiazole-4-carboxylic acid] came in with a melting point of 178 to 180 °C. In data set [4], this compound displayed an inhibition at 10 µM of 99% and an IC50 of 0.37 µM. In data set [5], the GI50 was > 50 µM.

`O=C(CCn1c(-c2nc(C(=O)O)cs2)nc2ccccc21)Nc1ccc(C(F)(F)F)cc1` [Compound 13h, 2-(1-(3-Oxo-3-((4-(trifluoromethyl)phenyl)amino)propyl)-1H-benzo[d]imidazol-2-yl)thiazole-4-carboxylic acid] had a melting point of 176 to 178 °C. In data set [4], this compound came in with an inhibition at 10 µM of 81% and an IC50 of 1.15 µM. Also, in data set [5], the GI50 is > 50 µM.

In turn, `O=C(CCn1c(-c2nc(C(=O)O)cs2)nc2ccccc21)Nc1cc(Cl)cc(Cl)c1` [Compound 13i, 2-(1-(3-((3,5-Dichlorophenyl)amino)-3-oxopropyl)-1H-benzo[d]imidazol-2-yl)thiazole-4-carboxylic acid] came in with a melting point of 192 to 194 °C. In addition, in data set [4], testing at 10 µM gave an inhibition of 80% and inhibition was half-maximal at 1.35 µM (IC50). Also, the GI50 in data set [5] was > 50 µM.

`Cc1ccc(NC(=O)CCn2c(-c3nc(C(=O)O)cs3)nc3ccccc32)cc1F` [Compound 13j, 2-(1-(3-((3-Fluoro-4-methylphenyl)amino)-3-oxopropyl)-1H-benzo[d]imidazol-2-yl)thiazole-4-carboxylic acid] came in with a melting point of 204 to 206 °C. 10 µM produced 72% inhibition in data set [4]. The GI50 in data set [5] is > 50 µM.
